The target of this test is T1, RXFP1 (Homo sapiens, UniProt Q9HBX9).
T1 construct: OVCAR5 cells expressing endogenous RXFP1; endogenous in cells; host or cells: OVCAR5 cells
T1 sequence (Q9HBX9 1-757): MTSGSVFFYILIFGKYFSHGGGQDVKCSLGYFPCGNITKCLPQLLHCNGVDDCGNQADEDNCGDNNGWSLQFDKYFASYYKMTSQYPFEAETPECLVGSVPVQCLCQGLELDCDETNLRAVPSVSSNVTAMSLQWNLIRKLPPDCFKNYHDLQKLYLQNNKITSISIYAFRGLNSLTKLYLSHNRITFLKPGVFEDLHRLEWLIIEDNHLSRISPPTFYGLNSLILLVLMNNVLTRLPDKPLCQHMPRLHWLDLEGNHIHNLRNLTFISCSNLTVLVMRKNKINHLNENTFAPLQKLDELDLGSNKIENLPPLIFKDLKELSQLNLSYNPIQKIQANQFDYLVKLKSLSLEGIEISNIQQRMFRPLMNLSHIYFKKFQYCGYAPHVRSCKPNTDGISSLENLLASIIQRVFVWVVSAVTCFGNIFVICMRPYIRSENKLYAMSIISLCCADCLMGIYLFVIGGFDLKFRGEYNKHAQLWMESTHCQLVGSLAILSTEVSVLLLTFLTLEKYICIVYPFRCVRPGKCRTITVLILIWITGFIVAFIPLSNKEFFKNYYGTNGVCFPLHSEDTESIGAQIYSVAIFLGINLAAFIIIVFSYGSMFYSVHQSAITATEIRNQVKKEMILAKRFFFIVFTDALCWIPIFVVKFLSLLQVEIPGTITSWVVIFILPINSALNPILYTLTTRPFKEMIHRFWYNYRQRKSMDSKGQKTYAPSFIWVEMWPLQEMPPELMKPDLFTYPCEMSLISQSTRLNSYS
Description: OVCAR5 cAMP assay (HTRF), RXFP1 agonist activity. In kind it is cell-based. The conditions noted are these: for Emax: OVCAR-5, maximal cAMP relative to H2-relaxin maximum (100%), read-out: EMax, OVCAR 5 cells (cAMP); for EC50: OVCAR5 cells, cAMP HTRF, read-out: EC50 (nM), OVCAR 5 cells (cAMP). An excerpt: OVCAR5 cells expressing endogenous RXFP1 were used to test RXP1 agonist properties of peptides of the invention, and in particular of the peptides of sequence SEQ ID NO: 1-193.
Since RXFP1 is a Gs coupled GPCR, cAMP was used as readout of RXFP1 activation.
Isobutyl Methyl Xanthine (IBMX) was used to inhibit phosphodiesterase activity facilitating cAMP measurements. HTRF (Homogenous Time Resolved Fluorescence) technology was used to detect cAMP due to its great sensitivity.
In summary, OVCAR5 were grown in regular medium (RPMI) containing 10% fetal calf serum (FCS) and 1% antibiotics (penicillin/streptomycin).
Before the experiments, cells were detached with accutase and incubated for 40 minutes at 37° C. with 1 mM (3-isobutyl-1-methylxanthine) IBMX.
Cells were then distributed in 384 black well plates containing increasing concentrations of the different peptides in a fix volume of medium (without FCS).
After an incubation of 30 min at 37° C. in an humid incubator in 5% CO2, the reaction was stopped by adding a fixed volume of a solution containing a lysis buffer and cAMP-D2 (cAMP labeled with the dye d2) and the anti cAMP antibody linked to Europium and used for cAMP detection.
Readout of the experiment were performed on a fluorimeter allowing HTRF measurement. Activation curves were generated by plotting the intracellular value of cAMP versus log 10 of the compound concentration.
The 50% activation concentration (EC50) was calculated by nonlinear regression using the sigmoidal dose-response (variable slope) equation with Prism 5 software.
Emax % is determined as the maximal intracellular value of cAMP for test compound (upper limit of cAMP vs concentration curve) divided by the maximal intracellular value of cAMP for H2-relaxin determined in the same test occasion multiplied by 100. Emax %=100×[cAMPtest cpd]/[cAMPH2-RlX]
(Changes in cAMP serve as a functional read-out for many G protein-coupled receptors.)

*1 amine or outer side, *2 acyl side, *3 side chain or, on linkers, in order; H or OH if unused. Where a SMILES comes first, the peptide text is derived from it. Side-chain parts run from the residue outwards. [ ]: non-standard residue; d: D form. The star is where a group is joined. X10 = CCCCCCCCCCCCCCCC(=O)N[C@@H](CCC(=O)N[C@@H](CCC(=O)N[C@@H](CCC(=O)NCCCOCCOCCOCCCNC(=O)CCC(=O)NCCCOCCOCCOCCCN*)C(=O)O)C(=O)O)C(=O)O; γGlu = O=C(O)[C@H](CCC(=O)[*:2])N[*:1]; Stearoyl = CCCCCCCCCCCCCCCCCC(=O)*; Palmitoyl = CCCCCCCCCCCCCCCC(=O)*; Suc = O=C(CCC(=O)[*:2])[*:1]; Nle = CCCC[C@H](N)C(=O)O; AEEA = NCCOCCOCC(=O)O; Aib = CC(C)(N)C(=O)O

The term Emax denotes the maximal effect, on the per cent scale that the assay sets. In the case of `CCCCCCCCCCCCCCCCCC(=O)NCCOCCOCC(=O)N[C@@H](CCC(=O)N[C@@H](CCC(=O)N[C@@H](CCC(=O)NCCOCCOCC(=O)NCCOCCOCC(=O)NCCCC[C@H](NC(=O)[C@H](CCCCN)NC(=O)[C@H](CCCCN)NC(=O)[C@H](CCCNC(=N)N)NC(=O)C(C)(C)NC(=O)[C@H](CO)NC(=O)[C@H](Cc1c[nH]c2ccccc12)NC(=O)[C@@H](NC(=O)[C@H](CO)NC(=O)[C@H](CCCC)NC(=O)CNC(=O)[C@H](CCC(=O)O)NC(=O)C(C)(C)NC(=O)C(C)(C)NC(=O)[C@@H](NC(=O)[C@H](CCC(N)=O)NC(=O)[C@H](C)NC(=O)[C@H](CCCNC(=N)N)NC(=O)[C@@H](NC(=O)[C@H](CCCCN)NC(=O)[C@H](CCC(=O)O)NC(=O)[C@H](CCCNC(=N)N)NC(=O)CNC(=O)[C@H](CCC(=O)O)NC(=O)[C@H](CC(C)C)NC(C)=O)C(C)C)[C@@H](C)CC)[C@@H](C)O)C(N)=O)C(=O)O)C(=O)O)C(=O)O` [compound 98] (Ac-LEGREKVRAQI[Aib][Aib]EG[Nle]STWS[Aib]RKKK([AEEA-AEEA-γGlu-γGlu-γGlu-AEEA-Stearoyl])-NH2), the Emax is 99%.

Usually EC50 stands for the concentration at which the effect is half-maximal. In the case of `CCCCCCCCCCCCCCCC(=O)N[C@@H](CCC(=O)N[C@@H](CCC(=O)N[C@@H](CCC(=O)NCCCOCCOCCOCCCNC(=O)CCC(=O)NCCCOCCOCCOCCCNC(=O)CCC(=O)NCCCC[C@H](NC(=O)[C@H](CCCCNC(C)=O)NC(=O)[C@H](CCCCN)NC(=O)[C@H](CCCNC(=N)N)NC(=O)C(C)(C)NC(=O)[C@H](CO)NC(=O)[C@H](Cc1c[nH]c2ccccc12)NC(=O)[C@@H](NC(=O)[C@H](CO)NC(=O)[C@H](CCCC)NC(=O)CNC(=O)[C@H](CCC(=O)O)NC(=O)C(C)(C)NC(=O)C(C)(C)NC(=O)[C@@H](NC(=O)[C@H](CCCCNC(C)=O)NC(=O)[C@H](C)NC(=O)[C@H](CCCNC(=N)N)NC(=O)[C@@H](NC(=O)[C@H](CCCCN)NC(=O)[C@H](CCC(=O)O)NC(=O)[C@H](CCCNC(=N)N)NC(=O)CNC(=O)[C@H](CCC(=O)O)NC(=O)[C@H](CC(C)C)NC(C)=O)C(C)C)[C@@H](C)CC)[C@@H](C)O)C(N)=O)C(=O)O)C(=O)O)C(=O)O` [compound 166] (Ac-LEGREKVRAK(Ac)I[Aib][Aib]EG[Nle]STWS[Aib]RKK(Ac)K([Suc-X10])-NH2), the EC50 worked out at 0.26 nM and the Emax came out at 92%.

`CCCCCCCCCCCCCCCC(=O)N[C@@H](CCC(=O)N[C@@H](CCC(=O)N[C@@H](CCC(=O)NCCOCCOCC(=O)NCCOCCOCC(=O)NCCCC[C@H](NC(=O)COCCOCCNC(=O)[C@H](CCCCN)NC(=O)[C@H](CCCNC(=N)N)NC(=O)C(C)(C)NC(=O)[C@H](CO)NC(=O)[C@H](Cc1c[nH]c2ccccc12)NC(=O)[C@@H](NC(=O)[C@H](CO)NC(=O)[C@H](CCCC)NC(=O)CNC(=O)[C@H](CCC(=O)O)NC(=O)C(C)(C)NC(=O)C(C)(C)NC(=O)[C@@H](NC(=O)[C@H](CCC(N)=O)NC(=O)[C@H](C)NC(=O)[C@H](CCCNC(=N)N)NC(=O)[C@@H](NC(=O)[C@H](CCCCN)NC(=O)[C@H](CCC(=O)O)NC(=O)[C@H](CCCNC(=N)N)NC(=O)CNC(=O)[C@H](CCC(=O)O)NC(=O)[C@H](CC(C)C)NC(C)=O)C(C)C)[C@@H](C)CC)[C@@H](C)O)C(N)=O)C(=O)O)C(=O)O)C(=O)O` [compound 13] (Ac-LEGREKVRAQI[Aib][Aib]EG[Nle]STWS[Aib]RK[AEEA]K([AEEA-AEEA-γGlu-γGlu-γGlu-Palmitoyl])-NH2): the Emax is 81%.

With `CCCCCCCCCCCCCCCCCC(=O)N[C@@H](CCC(=O)NCCOCCOCC(=O)NCCOCCOCC(=O)NCCCC[C@H](NC(=O)[C@H](CCCCN)NC(=O)[C@H](CCCNC(=N)N)NC(=O)C(C)(C)NC(=O)[C@H](CO)NC(=O)[C@H](Cc1c[nH]c2ccccc12)NC(=O)[C@@H](NC(=O)[C@H](CO)NC(=O)[C@H](CCCC)NC(=O)CNC(=O)[C@H](CCC(=O)O)NC(=O)C(C)(C)NC(=O)C(C)(C)NC(=O)[C@@H](NC(=O)[C@H](CCC(N)=O)NC(=O)[C@H](C)NC(=O)[C@H](CCCNC(=N)N)NC(=O)[C@@H](NC(=O)[C@H](CCCCN)NC(=O)[C@H](CCC(=O)O)NC(=O)[C@H](CCCNC(=N)N)NC(=O)CNC(=O)[C@H](CCC(=O)O)NC(=O)[C@H](CC(C)C)NC(C)=O)C(C)C)[C@@H](C)CC)[C@@H](C)O)C(N)=O)C(=O)O` [compound 56] (Ac-LEGREKVRAQI[Aib][Aib]EG[Nle]STWS[Aib]RKK([AEEA-AEEA-γGlu-Stearoyl])-NH2), the Emax stood at 95%.

For the compound `CCCCCCCCCCCCCCCCCC(=O)N[C@@H](CCC(=O)N[C@@H](CCC(=O)N[C@@H](CCC(=O)NCCOCCOCC(=O)NCCOCCOCC(=O)NCCOCCOCC(=O)NCCOCCOCC(=O)NCCOCCOCC(=O)NCCCC[C@H](NC(=O)[C@H](CCCCN)NC(=O)[C@H](CCCCN)NC(=O)[C@H](CCCNC(=N)N)NC(=O)C(C)(C)NC(=O)[C@H](CO)NC(=O)[C@H](Cc1c[nH]c2ccccc12)NC(=O)[C@@H](NC(=O)[C@H](CO)NC(=O)[C@H](CCCC)NC(=O)CNC(=O)[C@H](CCC(=O)O)NC(=O)C(C)(C)NC(=O)C(C)(C)NC(=O)[C@@H](NC(=O)[C@H](CCC(N)=O)NC(=O)[C@H](C)NC(=O)[C@H](CCCNC(=N)N)NC(=O)[C@@H](NC(=O)[C@H](CCCCN)NC(=O)[C@H](CCC(=O)O)NC(=O)[C@H](CCCNC(=N)N)NC(=O)CNC(=O)[C@H](CCC(=O)O)NC(=O)[C@H](CC(C)C)NC(C)=O)C(C)C)[C@@H](C)CC)[C@@H](C)O)C(N)=O)C(=O)O)C(=O)O)C(=O)O` [compound 93] (Ac-LEGREKVRAQI[Aib][Aib]EG[Nle]STWS[Aib]RKKK([AEEA-AEEA-AEEA-AEEA-AEEA-γGlu-γGlu-γGlu-Stearoyl])-NH2), the EC50 came to 0.14 nM and the Emax turned out to be 87%.

As for `CCCCCCCCCCCCCCCC(=O)N[C@@H](CCC(=O)NCCCC[C@H](NC(=O)[C@H](CCCCN)NC(=O)[C@H](CCCNC(=N)N)NC(=O)C(C)(C)NC(=O)[C@H](CO)NC(=O)[C@H](Cc1c[nH]c2ccccc12)NC(=O)[C@@H](NC(=O)[C@H](CO)NC(=O)[C@H](CCCC)NC(=O)CNC(=O)[C@H](CCC(=O)O)NC(=O)C(C)(C)NC(=O)C(C)(C)NC(=O)[C@@H](NC(=O)[C@H](CCC(N)=O)NC(=O)[C@H](C)NC(=O)[C@H](CCCNC(=N)N)NC(=O)[C@@H](NC(=O)[C@H](CCCCN)NC(=O)[C@H](CCC(=O)O)NC(=O)[C@H](CCCNC(=N)N)NC(=O)CNC(=O)[C@H](CCC(=O)O)NC(=O)[C@H](CC(C)C)NC(C)=O)C(C)C)[C@@H](C)CC)[C@@H](C)O)C(N)=O)C(=O)O` [compound 2] (Ac-LEGREKVRAQI[Aib][Aib]EG[Nle]STWS[Aib]RKK([γGlu-Palmitoyl])-NH2), the Emax came to 100%.
